# Reference: US20230303623A1, “PEPTIDES AND METHODS OF USE” (REALTA LIFE SCIENCES, INC., priority 2020, published 2023)
# Entries after “also recorded” stand apart in the source; their conditions may differ.
# What was measured:
# CTLA-4 = molecular target: T1, CTLA-4 (Homo sapiens, UniProt P16410); test: CTLA-4 Blockade Bioassay (Promega); format: cell-based; design: host or cells: Jurkat T cells (CTLA-4 effector cells) co-cultured with aAPC/Raji cells; details: increasing concentrations; listed as RLS-0164
# T1 sequence (P16410 36-223): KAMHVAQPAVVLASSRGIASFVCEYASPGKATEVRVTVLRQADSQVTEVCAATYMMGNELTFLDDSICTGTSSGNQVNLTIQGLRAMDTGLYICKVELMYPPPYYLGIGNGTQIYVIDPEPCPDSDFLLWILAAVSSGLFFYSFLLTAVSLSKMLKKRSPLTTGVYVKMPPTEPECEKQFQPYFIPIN
# Experimental: CTLA-4 effector cells were incubated with aAPC/Raji Cells in the absence or presence of increasing concentrations of anti-CTLA-4 antibody (positive control), RLS-0122, RLS-0150, RLS-0154, RLS-0164 and RLS-0168 and RLS-0088 (negative control). Luminescence was detected in luminometer plate reader. The drop-off in signal with the test peptides at high concentrations is due to cell death as a result of peptide buffer effects on the cells.
# To assess if PIC1 peptides could block CTLA-4 inhibitory activity in a cell-based assay, select peptides were screened in the CTLA-4 Blockade Bioassay (Promega). This bioluminescent cell-based assay can be used to measure the potency and stability of molecules targeting CTLA-4 and consists of two genetically engineered cell lines: CTLA-4 effector cells: Jurkat T cells expressing human CTLA-4 and a luciferase reporter driven by a native promoter which responds to TCR/CD28 activation and aAPC/Raji Cells: Raji cells expressing an engineered cell surface protein designed to activate cognate TCRs in an antigen-independent manner and endogenously expressing CTLA-4 ligands CD80 and CD86. When the two cell types are co-cultured, CTLA-4 competes with CD28 for their shared ligands, CD80 and CD86 and thus inhibits CD28 pathway activation and promoter-mediated luminescence. Addition of a molecule that blocks the interaction of CTLA-4 with its ligands CD80 and CD86 results in promoter-mediated luminescence.
# VEGF [1] = molecular target: T2, VEGF (Homo sapiens, UniProt P15692); test: VEGF Bioassay (Promega), VEGF signaling via VEGFR-2 (KDR); format: cell-based
# T2 construct: Promega (bioassay)
# T2 sequence (P15692 27-191 isoform P15692-4): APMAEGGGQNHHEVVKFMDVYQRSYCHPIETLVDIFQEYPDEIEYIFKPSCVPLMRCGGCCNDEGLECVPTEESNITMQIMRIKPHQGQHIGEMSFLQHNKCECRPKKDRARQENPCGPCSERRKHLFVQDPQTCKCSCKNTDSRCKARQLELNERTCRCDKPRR
# Source text: Luminescence was detected in luminometer plate reader.
# (§1) Angiogenesis, or the formation of new blood vessels from the established vasculature, is an essential element in tumor growth and metastasis formation. Inhibiting tumor angiogenesis is considered a major therapeutic strategy in oncology. […] The bioluminescent signal is detected in a luminometer.
# VEGF [2] = molecular target: T2, VEGF; test: VEGF binding ELISA plate-based assay; details: peptides 1 mg/ml
# Experimental: A fixed amount of PIC1 peptides (1 mg/ml) were added to the plates followed by a rabbit polyclonal antibody that recognizes the peptides and then a secondary anti-rabbit antibody conjugated with HRP. The plate was then developed by addition of TMB as the substrate for the colorimetric assay.
# as §1
# HUVECs = test: LPS-induced non-VEGF mediated angiogenesis (tube formation) in HUVECs; format: cell-based, human; details: peptides 10 mg/ml; LPS 10 ug/ml; overnight
# Experimental: HUVEC cells were incubated with either RLS-0122, RLS-0150, RLS-0154, RLS-0164 and RLS-0168 followed by LPS addition and plating onto extracellular matrix. After overnight incubation, evidence of angiogenesis was determined by fluorescence microscopy. Cells receiving LPS and not receiving LPS served as positive and negative controls for angiogenesis.
# Currently there are no drugs on the market to inhibit non-VEGF mediated angiogenesis. To assess whether the PIC1 peptides could inhibit non-VEGF mediated angiogenesis, the inventors developed a model of angiogenesis using human umbilical endothelial vein cells (HUVECs) in which addition of lipopolysaccharide (LPS) induces angiogenesis. HUVECs were first incubated with Cell Trace Violet dye, followed by addition of PIC1 peptides (10 mg/ml) for 1 hour at 37° C. and then treated with 10 ug/ml of LPS and placement on an extracellular matrix to promote angiogenesis. Cells were incubated overnight at 37° C. in a humidified CO2 incubator. Cells were then visualized for tube formation indicative of angiogenesis by fluorescence microscopy.
# [3] = Total Antioxidant Capacity (TAC) assay; details: highest peptide concentration 1.5 mM; compared to parent peptide
# Experimental: As previously reported, the TAC (Total Antioxidant Capacity) Assay (Cell Biolabs, Inc, San Diego, CA) was used to measure the antioxidant capacity of the PIC1 variants based on the reduction of copper (II) to copper (I). The kit protocol was performed per the manufacturer's recommendations.
# The antioxidant properties for the PIC1 variants were evaluated in a Total Antioxidant Capacity (TAC) assay, as previously reported. Total antioxidant activity over a range of peptide concentrations were determined for the stapled and the D-amino acid peptides based on the PA-I8Sar and PA-C9Sar backbones (FIG. 4A-4B), with the activity of the highest peptide concentration reported (1.5 mM) (FIG. 5A-5C).
# [4] = system: purified human Pan T-cells; test: T-cell exhaustion protocol (repeated CD3/CD28 Dynabead stimulation); format: cell-based; details: ELISA, listed as RLS-0164
# Experimental: Purified human pan-T-cells were subject to stimulation with Dynabeads every 48 hours over the period of 8 days with cells also receiving PIC1 peptides (2 mg/ml) at each stimulation. Cells not receiving Dynabeads were run in parallel to assess background levels of Caspase 3/7 signal. At the eighth day, cells were harvested, and the levels of Caspase 3/7 determined by ELISA.
# Purified human pan-T-cells were subject to stimulation with Dynabeads every 48 hours over the period of 8 days with cells also receiving PIC1 peptides (2 mg/ml) at each stimulation. Cell supernatants were collected at each stimulation and levels of IL-2 and IFN-gamma assayed by ELISA.
# T-cell exhaustion is a form of T-cell dysfunction that occurs in cancer. It is generally defined by poor effector function, reduction in cytokine release (e.g., IL-2, TNF-alpha, IFN-gamma), sustained expression of inhibitory receptors (e.g., PD-1, LAG-3, CD244, CD160) with the progressive loss of effector function due to overstimulation. Exhaustion can prevent optimal control of tumor growth. Exhausted T cells are prevalent in the tumor microenvironment (TME) and can lead to T-cell apoptosis. T-cell exhaustion is reversible and pharmaceutical inhibition of T-cell exhaustion has been considered a promising strategy by many cancer researchers. To ascertain if PIC1 peptides could reverse T-cell exhaustion and increase T cell viability and effector function, a T-cell exhaustion protocol was developed. To induce T-cell exhaustion, purified human Pan T-cells were stimulated with T-Activator CD3/CD28 Dynabeads and cells were washed and re-stimulated every 48 hours. PIC1 peptides were added to the cells after each stimulation with Dynabeads. After three to four stimulations, cells were harvested for readouts which consisted of assessing T-cell apoptosis by measuring Caspase 3/7 levels and production of cytokines IL-2 and IFN-gamma, which are indicative of T-cell functionality. […] To further evaluate if PIC1 peptides could restore T-cell functionality in cells that have undergone the exhaustion protocol, the inventors next assessed production of cytokines IL-2 and IFN-gamma. Supernatants from the cells after each stimulation was collected and the cytokines measured by ELISA. […] The lower level of IFN-gamma signal was consistently seen in this assay.
# [5] = peptides 2 mg/ml, stimulation 2
substance,measurement,setting,value
IALILEPI(Sar)dCQERAA (IALILEPIXCQERAA; D-Cys; sarcosine; MOD_RES (9)..(9) Sarcosine; MOD_RES (10)..(10) D-amino acid) [PA-0164],"inhibition of CTLA-4 mediated cell signaling (increase in luminescence), in words",CTLA-4,showed inhibitory activity; also recorded: able to inhibit CTLA-4 mediated cell signaling
same,"inhibition of VEGF signaling via VEGFR-2 (luminescence), in words",VEGF [1],did not inhibit signaling
same,"binding to VEGF, in words",VEGF [2],binding with high affinity
same,"tube formation / angiogenesis inhibition, in words",HUVECs,no detectable tube formation
same,"total antioxidant capacity, in words",[3],enhanced activity
same,"Caspase 3/7 levels, in words","[4]; peptides 2 mg/ml at each stimulation, day 8",decreased levels; also recorded: reduced levels
same,"IFN-gamma levels in cell supernatants, in words",[4]; [5],showed IL-2 and IFN-gamma signal at stimulation 2; also recorded: increased levels
same,"IL-2 levels in cell supernatants, in words",[4]; [5],showed IL-2 and IFN-gamma signal at stimulation 2; also recorded: increased levels
